# Target: JAK1 (Homo sapiens (Human), UniProt P23458)
# Test: Analysis of JAK1 activity inhibition ability (ADP-Glo Kinase Assay)
# Assay type: biochemical
# Details: JAK1 enzyme, ADP-Glo luminescence, ATP 250 uM, IRS-itide substrate, 30° C. 40 minutes; read-out: IC50
# Outline: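 JAK1 enzyme, IRS-itide substrate (40 ng/mL) and 250 uM ATP, both as prepared in kinase buffer (Tris-HCl pH 7.5, MgCl2, BSA, DTT), reacted with compound 40 min at 30 °C. ADP formed was detected by ADP-Glo luminescence; IC50 is the concentration giving 50% inhibition versus control.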
# Sequence of JAK1 (P23458 whole entry): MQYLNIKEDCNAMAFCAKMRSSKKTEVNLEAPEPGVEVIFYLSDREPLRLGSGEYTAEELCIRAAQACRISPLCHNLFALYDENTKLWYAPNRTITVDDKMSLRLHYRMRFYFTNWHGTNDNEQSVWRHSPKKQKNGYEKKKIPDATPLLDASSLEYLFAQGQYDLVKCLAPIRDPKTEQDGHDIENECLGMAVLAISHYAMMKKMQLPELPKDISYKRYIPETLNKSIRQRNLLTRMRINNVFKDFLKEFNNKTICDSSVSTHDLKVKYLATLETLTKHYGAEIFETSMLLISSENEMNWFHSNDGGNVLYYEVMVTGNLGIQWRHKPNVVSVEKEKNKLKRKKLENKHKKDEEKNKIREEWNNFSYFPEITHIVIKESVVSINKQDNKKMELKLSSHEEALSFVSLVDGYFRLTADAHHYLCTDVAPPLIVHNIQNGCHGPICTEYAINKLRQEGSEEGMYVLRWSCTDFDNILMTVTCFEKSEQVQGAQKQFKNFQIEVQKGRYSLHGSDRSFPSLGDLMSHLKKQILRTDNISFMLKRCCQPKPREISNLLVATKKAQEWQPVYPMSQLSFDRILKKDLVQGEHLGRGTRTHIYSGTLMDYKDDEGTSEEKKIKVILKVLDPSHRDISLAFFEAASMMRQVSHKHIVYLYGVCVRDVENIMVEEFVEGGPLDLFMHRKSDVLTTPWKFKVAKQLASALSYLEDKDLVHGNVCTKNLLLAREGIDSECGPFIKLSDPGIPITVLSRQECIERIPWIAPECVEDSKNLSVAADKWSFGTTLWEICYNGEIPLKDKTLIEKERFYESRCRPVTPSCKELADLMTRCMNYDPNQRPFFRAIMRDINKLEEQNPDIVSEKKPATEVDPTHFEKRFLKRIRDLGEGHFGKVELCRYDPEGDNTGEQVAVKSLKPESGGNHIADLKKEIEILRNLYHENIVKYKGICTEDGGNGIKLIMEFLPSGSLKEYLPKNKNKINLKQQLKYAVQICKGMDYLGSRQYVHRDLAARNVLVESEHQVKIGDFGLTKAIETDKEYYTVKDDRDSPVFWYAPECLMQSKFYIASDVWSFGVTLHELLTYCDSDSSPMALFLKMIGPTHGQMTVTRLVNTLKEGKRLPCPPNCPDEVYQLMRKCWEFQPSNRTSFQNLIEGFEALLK
row,IC50 [nM],Structure (SMILES)
1,< 20,"O=C(Nc1cc(-c2ccc(NS(=O)(=O)C3CCS(=O)(=O)C3)cc2)c2cc[nH]c2n1)C1CC1 (stereo not drawn) [Example 10, N-(4-(4-((1,1-dioxidotetrahydrothiophene)-3-sulfonamido)phenyl)-1H-pyrrolo[2,3-b]pyridin-6-yl)cyclopropanecarboxamide]"
2,> 200,"CCS(=O)(=O)Nc1ccc(-c2cc(NS(=O)(=O)C3CC3)nc3[nH]ccc23)cc1F [Example 716, N-(4-(4-(ethylsulfonamido)-3-fluorophenyl)-1H-pyrrolo[2,3-b]pyridin-6-yl)cyclopropanesulfonamide]"
3,< 20,"O=C(Nc1cc(-c2ccc(NS(=O)(=O)C3CS(=O)(=O)C3)cc2)c2cc[nH]c2n1)C1CC1 [Example 11, N-(4-(4-((1,1-dioxidothietane)-3-sulfonamido)phenyl)-1H-pyrrolo[2,3-b]pyridin-6-yl)cyclopropanecarboxamide]"
4,20 to 200,"COc1cccc(C(=O)N2CC=C(c3cc(NC(=O)C4CC4)nc4[nH]ccc34)C(C)C2)c1 (stereo not drawn) [Example 330, N-(4-(1-(3-methoxybenzoyl)-3-methyl-1,2,3,6-tetrahydropyridin-4-yl)-1H-pyrrolo[2,3-b]pyridin-6-yl)cyclopropanecarboxamide]"
5,20 to 200,"CCOCCS(=O)(=O)Nc1ccc(-c2cc(NC(=O)C3CC3)nc3[nH]ccc23)cc1 [Example 53, N-(4-(4-((2-ethoxyethyl)sulfonamido)phenyl)-1H-pyrrolo[2,3-b]pyridin-6-yl)cyclopropanecarboxamide]"
6,20 to 200,"Cc1cc(NS(=O)(=O)C2CCC2)ccc1-c1cc(NC(=O)C2CC2)nc2[nH]ccc12 [Example 91, N-(4-(4-(cyclobutanesulfonamido)-2-methylphenyl)-1H-pyrrolo[2,3-b]pyridin-6-yl)cyclopropanecarboxamide]"
7,20 to 200,"O=C(Nc1cc(-c2ccc(NC3CN(C(=O)CC(F)(F)F)C3)cc2)c2cc[nH]c2n1)C1CC1 [Example 517, N-(4-(4-((1-(3,3,3-trifluoropropanoyl)azetidin-3-yl)amino)phenyl)-1H-pyrrolo[2,3-b]pyridin-6-yl)cyclopropanecarboxamide]"
8,20 to 200,"CCCS(=O)(=O)Nc1ccc(-c2nc(NC(=O)C3CC3)nc3[nH]ccc23)cc1F [Example 206, N-(4-(3-fluoro-4-(propylsulfonamido)phenyl)-7H-pyrrolo[2,3-d]pyrimidin-2-yl)cyclopropanecarboxamide]"
9,> 200,"Cc1nc(C)c(C(=O)N2CC=C(c3cc(NC(=O)C4CC4)nc4[nH]ccc34)C(C)C2)s1 (stereo not drawn) [Example 307, N-(4-(1-(2,4-dimethylthiazole-5-carbonyl)-3-methyl-1,2,3,6-tetrahydropyridin-4-yl)-1H-pyrrolo[2,3-b]pyridin-6-yl)cyclopropanecarboxamide]"
10,> 200,"Cc1nnn(Cc2ccc(-c3cc(NC(=O)C4CC4)nc4[nH]cnc34)cc2)n1 [Example 593, N-(7-(4-((5-methyl-2H-tetrazol-2-yl)methyl)phenyl)-3H-imidazo[4,5-b]pyridin-5-yl)cyclopropanecarboxamide]"
11,< 20,"CCS(=O)(=O)Nc1cc(F)c(-c2cc(NC(=O)C3CC3)nc3[nH]ccc23)cc1F [Example 83, N-(4-(4-(ethylsulfonamido)-2,5-difluorophenyl)-1H-pyrrolo[2,3-b]pyridin-6-yl)cyclopropanecarboxamide]"
12,20 to 200,"O=C(Cc1ccc(-c2cc(NC(=O)C3CC3)nc3[nH]ccc23)cc1)NC1CCS(=O)(=O)C1 (stereo not drawn) [Example 538, N-(4-(4-(2-((1,1-dioxidotetrahydrothiophen-3-yl)amino)-2-oxoethyl)phenyl)-1H-pyrrolo[2,3-b]pyridin-6-yl)cyclopropanecarboxamide]"
13,< 20,"CS(=O)(=O)N1CCN(Cc2ccc(-c3cc(NC(=O)C4CC4)nc4[nH]ccc34)cc2)CC1 [Example 587, N-(4-(4-((4-(methylsulfonyl)piperazin-1-yl)methyl)phenyl)-1H-pyrrolo[2,3-b]pyridin-6-yl)cyclopropanecarboxamide]"
14,20 to 200,"CCS(=O)(=O)Nc1ccc(-c2cc(NC(C)=O)nc3[nH]ccc23)cc1F [Example 710, N-(4-(4-(ethylsulfonamido)-3-fluorophenyl)-1H-pyrrolo[2,3-b]pyridin-6-yl)acetamide]"
15,20 to 200,"O=C(Nc1cc(C2=CCN(C(=O)C3CCS(=O)(=O)CC3)CC2)c2cc[nH]c2n1)C1CC1 [Example 249, N-(4-(1-(1,1-dioxidotetrahydro-2H-thiopyran-4-carbonyl)-1,2,3,6-tetrahydropyridin-4-yl)-1H-pyrrolo[2,3-b]pyridin-6-yl)cyclopropanecarboxamide]"
16,20 to 200,"CC1CN(C(=O)c2c(Cl)cncc2Cl)CC=C1c1cc(NC(=O)C2CC2)nc2[nH]ccc12 (stereo not drawn) [Example 374, N-(4-(1-(3,5-dichloroisonicotinoyl)-3-methyl-1,2,3,6-tetrahydropyridin-4-yl)-1H-pyrrolo[2,3-b]pyridin-6-yl)cyclopropanecarboxamide]"
17,> 200,N#CC1(CS(=O)(=O)Nc2ccc(-c3cc(NC(=O)C4CC4)nc4[nH]ccc34)c(C(=O)O)c2)CC1 [Example 143]
18,> 200,"O=C(Nc1cc(-c2ccc(OS(=O)(=O)CC3CCCCC3)cc2)c2cc[nH]c2n1)C1CC1 [Example 637, 4-(6-(cyclopropanecarboxamido)-1H-pyrrolo[2,3-b]pyridin-4-yl)phenyl cyclohexylmethanesulfonate]"
19,< 20,"N#CCC(=O)N1CC=C(c2cc(NC(=O)C3CC3)nc3[nH]ccc23)CC12CCC2 [Example 414, N-(4-(5-(2-cyanoacetyl)-5-azaspiro[3.5]non-7-en-8-yl)-1H-pyrrolo[2,3-b]pyridin-6-yl)cyclopropanecarboxamide]"
20,20 to 200,"N#CCC(=O)N1CC=C(c2nc(NC(=O)C3CC3)nc3[nH]ccc23)CC1 [Example 425, N-(4-(1-(2-cyanoacetyl)-1,2,3,6-tetrahydropyridin-4-yl)-7H-pyrrolo[2,3-d]pyrimidin-2-yl)cyclopropanecarboxamide]"
21,< 20,"N#CCNC(=O)c1ccc(-c2cc(NC(=O)C3CC3)nc3[nH]ccc23)cc1 [Example 523, N-(cyanomethyl)-4-(6-(cyclopropanecarboxamido)-1H-pyrrolo[2,3-b]pyridin-4-yl)benzamide]"
22,20 to 200,"Cc1cc(NS(=O)(=O)C2CC2)ccc1-c1cc(NC(=O)C2CC2)nc2[nH]ccc12 [Example 90, N-(4-(4-(cyclopropanesulfonamido)-2-methylphenyl)-1H-pyrrolo[2,3-b]pyridin-6-yl)cyclopropanecarboxamide]"
23,20 to 200,"O=C(Nc1cc(-c2ccc(NC3CCN(C(=O)Nc4ccc(F)cc4F)CC3)c(F)c2)c2cc[nH]c2n1)C1CC1 [Example 501, 4-((4-(6-(cyclopropanecarboxamido)-1H-pyrrolo[2,3-b]pyridin-4-yl)-2-fluorophenyl)amino)-N-(2,4-difluorophenyl)piperidine-1-carboxamide]"
24,20 to 200,"O=C(Nc1cc(-c2ccc(NC3CCN(C(=O)Nc4ccc(F)cc4F)CC3)cc2)c2cc[nH]c2n1)C1CC1 [Example 511, 4-((4-(6-(cyclopropanecarboxamido)-1H-pyrrolo[2,3-b]pyridin-4-yl)phenyl)amino)-N-(2,4-difluorophenyl)piperidine-1-carboxamide]"
25,20 to 200,"CC1CN(C(=O)c2ccc(O)cc2)CC=C1c1cc(NC(=O)C2CC2)nc2[nH]ccc12 (stereo not drawn) [Example 350, N-(4-(1-(4-hydroxybenzoyl)-3-methyl-1,2,3,6-tetrahydropyridin-4-yl)-1H-pyrrolo[2,3-b]pyridin-6-yl)cyclopropanecarboxamide]"
26,< 20,"CC1CN(C(=O)n2ccnc2)CC=C1c1cc(NC(=O)C2CC2)nc2[nH]ccc12 (stereo not drawn) [Example 452, N-(4-(1-(1H-imidazole-1-carbonyl)-3-methyl-1,2,3,6-tetrahydropyridin-4-yl)-1H-pyrrolo[2,3-b]pyridin-6-yl)cyclopropanecarboxamide]"
27,20 to 200,"O=C(NCC(F)(F)F)C1CC=C(c2cc(NC(=O)C3CC3)nc3[nH]ccc23)CC1 (stereo not drawn) [Example 531, 4-(6-(cyclopropanecarboxamido)-1H-pyrrolo[2,3-b]pyridin-4-yl)-N-(2,2,2-trifluoroethyl)cyclohex-3-ene-1-carboxamide]"
28,20 to 200,"O=C(Nc1cc(C2=CCC(NC(=O)C3CCCC3)CC2)c2cc[nH]c2n1)C1CC1 (stereo not drawn) [Example 245, N-(4-(6-(cyclopropanecarboxamido)-1H-pyrrolo[2,3-b]pyridin-4-yl)cyclohex-3-en-1-yl)cyclopentanecarboxamide]"
29,20 to 200,"CSc1ccc(S(=O)(=O)Nc2ccc(-c3cc(NC(=O)C4CC4)nc4[nH]ccc34)cc2)cc1 [Example 28, N-(4-(4-((4-(methylthio)phenyl)sulfonamido)phenyl)-1H-pyrrolo[2,3-b]pyridin-6-yl)cyclopropanecarboxamide]"

row,Structure (SMILES),IC50 [nM]
1,"O=C(Nc1cc(C2=CC3CCC(C2)N3S(=O)(=O)c2ccc(F)c(F)c2)c2cc[nH]c2n1)C1CC1 (stereo not drawn) [Example 178, N-(4-(8-((3,4-difluorophenyl)sulfonyl)-8-azabicyclo[3.2.1]oct-2-en-3-yl)-1H-pyrrolo[2,3-b]pyridin-6-yl)cyclopropanecarboxamide]",20 to 200
2,"N#CC1(CS(=O)(=O)N2C3CCC2CN(c2cc(NC(=O)C4CC4)nc4[nH]ccc24)C3)CC1 [Example 667, N-(4-(8-(((1-cyanocyclopropyl)methyl)sulfonyl)-3,8-diazabicyclo[3.2.1]octan-3-yl)-1H-pyrrolo[2,3-b]pyridin-6-yl)cyclopropanecarboxamide]",< 20
3,"N#CCC(=O)N1CC2CCC(C1)N2c1cc(NC(=O)C2CC2)nc2[nH]ccc12 [Example 678, N-(4-(3-(2-cyanoacetyl)-3,8-diazabicyclo[3.2.1]octan-8-yl)-1H-pyrrolo[2,3-b]pyridin-6-yl)cyclopropanecarboxamide]",20 to 200
4,"O=C(Nc1cc(C2CC3CCC(C2)N3S(=O)(=O)CCCF)c2cc[nH]c2n1)C1CC1 (stereo not drawn) [Example 648, N-(4-(8-((3-fluoropropyl)sulfonyl)-8-azabicyclo[3.2.1]octan-3-yl)-1H-pyrrolo[2,3-b]pyridin-6-yl)cyclopropanecarboxamide]",> 200

# Source: patent publication US11524968B2, “Heterocyclic compound as a protein kinase inhibitor” (HK inno.N Corporation, priority 2017, dated 2022)
